From PubChem BioAssay AID2060352 (Molecular Pharmacology Branch, DTP, NCI, 2025)

Test system: 616215-338-R-J1-PDC spheroid with HUVEC/MSC, viability
Assay: Anticancer human tumor 616215-338-R-J1-PDC patient-derived colon adenocarcinoma cell line growth inhibition [TAK]
Settings: for IC50: curve of first compound; for viability, T/C: stronger effect = lower value
In short: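 Drug combinations, each paired with TAK-243 or ipatasertib, were tested on multi-cell spheroids of 60% malignant cells, 25% HUVEC and 15% hMSC. Top concentrations were at or near the clinical Cmax (10 microM if undetermined), decreasing by half-log; viability is given as % test/control.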

[1] = second compound 0.3 µM, first compound 0.0316 µM
[2] = second compound 0.3 µM, first compound 0.1 µM
[3] = second compound 0.3 µM, first compound 0.316 µM
[4] = second compound 0.3 µM, first compound 1 µM
[5] = second compound 0.949 µM, first compound 0.0316 µM
[6] = second compound 0.949 µM, first compound 0.1 µM
[7] = second compound 0.949 µM, first compound 0.316 µM
[8] = second compound 0.949 µM, first compound 1 µM
[9] = second compound 3 µM, first compound 0.0316 µM
[10] = second compound 3 µM, first compound 0.1 µM
[11] = second compound 3 µM, first compound 0.316 µM
[12] = second compound 3 µM, first compound 1 µM
[13] = second compound 9.49 µM, first compound 0.0316 µM
[14] = second compound 9.49 µM, first compound 0.1 µM
[15] = second compound 9.49 µM, first compound 0.316 µM
[16] = second compound 9.49 µM, first compound 1 µM
[17] = second compound 30 µM, first compound 0.0316 µM
[18] = second compound 30 µM, first compound 0.1 µM
[19] = second compound 30 µM, first compound 0.316 µM
[20] = second compound 30 µM, first compound 1 µM
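Note: spheroids exposed to drugs for 7 days before readout.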

| SMILES | IC50 (second compound 0.3 µM) [nM] | IC50 (second compound 0.949 µM) [nM] | IC50 (second compound 3 µM) [nM] | IC50 (second compound 9.49 µM) [nM] | IC50 (second compound 30 µM) [nM] | viability, T/C [1] [%] | viability, T/C [2] [%] | viability, T/C [3] [%] | viability, T/C [4] [%] | viability, T/C [5] [%] | viability, T/C [6] [%] | viability, T/C [7] [%] | viability, T/C [8] [%] | viability, T/C [9] [%] | viability, T/C [10] [%] | viability, T/C [11] [%] | viability, T/C [12] [%] | viability, T/C [13] [%] | viability, T/C [14] [%] | viability, T/C [15] [%] | other results |
| --- | --- | --- | --- | --- | --- | --- | --- | --- | --- | --- | --- | --- | --- | --- | --- | --- | --- | --- | --- | --- | --- |
| COc1c(OCCCN2CCOCC2)ccc2c3n(c(=NC(=O)c4cnc(N)nc4)nc12)CCN3 + CC(C)NCC(C(=O)N1CCN(c2ncnc3c2C(C)CC3O)CC1)c1ccc(Cl)cc1 | 99.4 | 73.1 | 9.23 | < 3.16 | < 3.16 | 110 | 49.7 | 27.2 | 17.6 | 83.3 | 37.4 | 24.4 | 15.8 | 33.9 | 26.4 | 19.1 | 15.6 | 20.9 | 14.4 | 12.7 | viability, T/C (second compound 0.3 µM, first compound 0.00316 µM): 101%; viability, T/C (second compound 0.3 µM, first compound 0.01 µM): 113%; viability, T/C (second compound 0.949 µM, first compound 0.00316 µM): 113%; viability, T/C (second compound 0.949 µM, first compound 0.01 µM): 117%; viability, T/C (second compound 3 µM, first compound 0.00316 µM): 64.3%; viability, T/C (second compound 3 µM, first compound 0.01 µM): 49.7%; viability, T/C (second compound 9.49 µM, first compound 0.00316 µM): 23.5%; viability, T/C (second compound 9.49 µM, first compound 0.01 µM): 31.1%; viability, T/C [16]: 14.9%; viability, T/C (second compound 30 µM, first compound 0.00316 µM): 11.7%; viability, T/C (second compound 30 µM, first compound 0.01 µM): 12.8%; viability, T/C [17]: 9.99%; viability, T/C [18]: 9.6%; viability, T/C [19]: 8.41%; viability, T/C [20]: 7.42% |
| Cc1nc(NC(=O)N2CCCC2C(N)=O)sc1-c1ccnc(C(C)(C)C(F)(F)F)c1 (stereo not given) + CC(C)NCC(C(=O)N1CCN(c2ncnc3c2C(C)CC3O)CC1)c1ccc(Cl)cc1 | > 10000 | > 10000 | 2760 | < 31.6 | < 31.6 | 101 | 113 | 127 | 112 | 120 | 119 | 128 | 119 | 94.9 | 91 | 80 | 52.2 | 28 | 27.4 | 25.1 | viability, T/C (second compound 0.3 µM, first compound 3.16 µM): 119%; viability, T/C (second compound 0.3 µM, first compound 10 µM): 83.3%; viability, T/C (second compound 0.949 µM, first compound 3.16 µM): 110%; viability, T/C (second compound 0.949 µM, first compound 10 µM): 51.3%; viability, T/C (second compound 3 µM, first compound 3.16 µM): 59.3%; viability, T/C (second compound 3 µM, first compound 10 µM): 37.8%; viability, T/C [16]: 24.9%; viability, T/C (second compound 9.49 µM, first compound 3.16 µM): 21.5%; viability, T/C (second compound 9.49 µM, first compound 10 µM): 16.1%; viability, T/C [17]: 14.2%; viability, T/C [18]: 14.4%; viability, T/C [19]: 11.4%; viability, T/C [20]: 11.3%; viability, T/C (second compound 30 µM, first compound 3.16 µM): 10%; viability, T/C (second compound 30 µM, first compound 10 µM): 6.48% |
